Data as given in US12378224B2 (Dong-A Socio Holdings Co., Ltd., priority 2016, dated 2025).

Legend:
human MER (528-end) = human MER (528-end) (Homo sapiens (Human), UniProt Q12866); assay: HTRF Kinase Activity Biochemical Assay (KinEASE-TK); settings: 10 uM ATP
Method in brief: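 Activity read-out is the HTRF ratio (665 nm over 620 nm emission, ×10,000; excitation 340 nm) after 1 h detection with 0.375 nM Eu3+-cryptate anti-TK antibody plus 0.062 uM SA-XL665. Preceding kinase step: human MER (528-end), biotinylated TK substrate, 1 h, room temperature.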

[1] = molecular target: BCR fusion to kinase domain of MerTK (Ba/F3-MerTK) (Homo sapiens, UniProt Q12866); assay: In Cell TAM Kinase Assay Using BaF3 Cellular System; assay type: cell-based, murine; settings: Ba/F3 BCR-kinase fusion proliferation, 72 hours, Cell Titer Glo; kinase not given; read-out: IC50
Sequence of BCR fusion to kinase domain of MerTK (Ba/F3-MerTK) (Q12866 21-999 limits assumed, change not shown): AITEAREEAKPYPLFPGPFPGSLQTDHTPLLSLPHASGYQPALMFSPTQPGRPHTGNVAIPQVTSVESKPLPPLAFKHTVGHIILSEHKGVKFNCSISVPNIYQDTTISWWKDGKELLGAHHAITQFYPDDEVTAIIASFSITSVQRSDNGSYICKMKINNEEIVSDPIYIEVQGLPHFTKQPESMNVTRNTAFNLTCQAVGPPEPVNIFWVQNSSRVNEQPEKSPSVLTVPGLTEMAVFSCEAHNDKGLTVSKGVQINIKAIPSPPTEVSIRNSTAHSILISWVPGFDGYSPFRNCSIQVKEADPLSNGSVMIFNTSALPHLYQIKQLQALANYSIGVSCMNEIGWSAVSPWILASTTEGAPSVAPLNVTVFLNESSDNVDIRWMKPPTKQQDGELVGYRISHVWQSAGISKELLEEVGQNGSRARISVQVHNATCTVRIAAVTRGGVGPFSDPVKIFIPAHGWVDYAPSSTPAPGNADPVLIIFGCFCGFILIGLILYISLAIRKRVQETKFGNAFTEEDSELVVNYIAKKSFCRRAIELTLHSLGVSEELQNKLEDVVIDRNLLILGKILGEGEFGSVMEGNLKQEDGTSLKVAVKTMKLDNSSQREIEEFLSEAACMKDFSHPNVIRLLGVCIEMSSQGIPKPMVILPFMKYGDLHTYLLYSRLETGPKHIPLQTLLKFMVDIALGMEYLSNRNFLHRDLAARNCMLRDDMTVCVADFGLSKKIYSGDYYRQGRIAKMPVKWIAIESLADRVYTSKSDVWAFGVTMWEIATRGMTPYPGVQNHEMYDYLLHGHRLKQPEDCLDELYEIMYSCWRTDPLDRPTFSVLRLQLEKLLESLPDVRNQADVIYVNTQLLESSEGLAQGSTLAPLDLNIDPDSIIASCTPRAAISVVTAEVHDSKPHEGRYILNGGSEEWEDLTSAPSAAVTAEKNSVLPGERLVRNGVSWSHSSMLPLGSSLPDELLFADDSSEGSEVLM
Method in brief: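 Ba/F3 murine pro-B cells expressing BCR–MerTK kinase-domain fusion (IL-3 independent), seeded at 1,000 cells/well onto compound and grown 72 h. Viability read by CellTiter-Glo 2.0 luminescence after 30 min at room temperature.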

Sequence of human MER (528-end) (Q12866 528-999 limits assumed): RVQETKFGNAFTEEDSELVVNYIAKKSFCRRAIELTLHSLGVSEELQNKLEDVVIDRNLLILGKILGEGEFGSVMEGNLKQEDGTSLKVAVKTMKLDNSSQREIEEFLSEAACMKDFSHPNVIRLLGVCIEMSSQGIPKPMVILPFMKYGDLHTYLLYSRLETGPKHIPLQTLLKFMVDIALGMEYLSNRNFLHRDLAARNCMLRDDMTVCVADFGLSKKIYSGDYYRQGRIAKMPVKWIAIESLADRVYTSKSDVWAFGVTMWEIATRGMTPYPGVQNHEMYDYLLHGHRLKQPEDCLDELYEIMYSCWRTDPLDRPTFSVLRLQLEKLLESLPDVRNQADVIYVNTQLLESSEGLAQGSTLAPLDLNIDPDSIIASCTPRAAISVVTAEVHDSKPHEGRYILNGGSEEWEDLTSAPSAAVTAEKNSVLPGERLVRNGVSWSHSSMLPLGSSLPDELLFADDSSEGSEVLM

Row | SMILES | IC50 (human MER (528-end)) [nM] | IC50 [1] [nM]
1 | Nc1ncc(-c2ccc(F)nc2)cc1C(=O)N[C@@H]1CCN(C(=O)c2ccc(-c3ccc(F)cc3Cl)cc2)C1 [Example 774, (R)-6-amino-N-(1-(2′-chloro-4′-fluoro-[1,1′-biphenyl]-4-carbonyl)pyrrolidin-3-yl)-6^1-fluoro-[3,3′-bipyridine]-5-carboxamide] | 10 to 100 | 100 to 500
2 | NC(=O)c1ccccc1-c1cnc(N)c(C(=O)N[C@@H]2CCN(C(=O)c3ccc(-c4ccc(F)cc4Cl)cc3)C2)c1 [Example 776, (R)-2-amino-5-(2-carbamoylphenyl)-N-(1-(2′-chloro-4′-fluoro-[1,1′-biphenyl]-4-carbonyl)pyrrolidin-3-yl)nicotinamide] | > 1000 | > 1000
3 | Nc1ncc(-c2ccccc2O)cc1C(=O)N[C@@H]1CCN(C(=O)c2ccc(-c3ccc(F)cc3Cl)cc2)C1 [Example 778, (R)-2-amino-N-(1-(2′-chloro-4′-fluoro-[1,1′-biphenyl]-4-carbonyl)pyrrolidin-3-yl)-5-(2-hydroxyphenyl)nicotinamide] | 100 to 1000 | > 1000
4 | Nc1ccccc1-c1cnc(N)c(C(=O)N[C@@H]2CCN(C(=O)c3ccc(-c4ccc(F)cc4Cl)cc3)C2)n1 [Example 779, (R)-3-amino-6-(2-aminophenyl)-N-(1-(2′-chloro-4′-fluoro-[1,1′-biphenyl]-4-carbonyl)pyrrolidin-3-yl)pyrazine-2-carboxamide] | 100 to 1000 | > 1000
5 | Nc1ncc(-c2ccc(C(=O)N3CCOCC3)c(Cl)c2)cc1C(=O)N[C@@H]1CCN(C(=O)c2ccc(-c3ccc(F)cc3Cl)cc2)C1 [Example 781, (R)-2-amino-N-(1-(2′-chloro-4′-fluoro-[1,1′-biphenyl]-4-carbonyl)pyrrolidin-3-yl)-5-(3-chloro-4-(morpholine-4-carbonyl)phenyl)nicotinamide] | 10 to 100 | > 1000
6 | Cn1cc(-c2cnc(N)c(C(=O)N[C@@H]3CCN(C(=O)c4ccc5cc(C(=O)N6CCN(CCO)CC6)ccc5c4)C3)c2)cn1 [Example 786, (R)-2-amino-N-(1-(6-(4-(2-hydroxyethyl)piperazine-1-carbonyl)-2-naphthoyl)pyrrolidin-3-yl)-5-(1-methyl-1H-pyrazol-4-yl)nicotinamide] | > 1000 | > 1000
7 | CN(C)C(=O)c1ccc(Oc2ccc(-c3ccc(C(=O)N4CC[C@@H](NC(=O)c5cc(-c6cnn(C)c6)cnc5N)C4)cc3)cc2)cc1 [Example 787, (R)-2-amino-N-(1-(4′-(4-(dimethylcarbamoyl)phenoxy)-[1,1′-biphenyl]-4-carbonyl)pyrrolidin-3-yl)-5-(1-methyl-1H-pyrazol-4-yl)nicotinamide] | 10 to 100 | > 1000
8 | Cn1cc(-c2cnc(N)c(C(=O)N[C@@H]3CCN(C(=O)c4ccc(-c5ccc(Oc6ccc(C(N)=O)cc6)cc5)cc4)C3)c2)cn1 [Example 788, (R)-2-amino-N-(1-(4′-(4-carbamoylphenoxy)-[1,1′-biphenyl]-4-carbonyl)pyrrolidin-3-yl)-5-(1-methyl-1H-pyrazol-4-yl)nicotinamide] | 10 to 100 | > 1000
9 | CN1CCN(Cc2ccc(-c3ccc(C(=O)N4CC[C@@H](Nc5n[nH]c6ncc(-c7cnn(C)c7)cc56)C4)cc3)cc2)CC1 [Example 794, (R)-(3-((5-(1-methyl-1H-pyrazol-4-yl)-1H-pyrazolo[3,4-b]pyridin-3-yl)amino)pyrrolidin-1-yl)(4′-((4-methylpiperazin-1-yl)methyl)-[1,1′-biphenyl]-4-yl)methanone] | 10 to 100 | > 1000
10 | Cn1cc(-c2cnc(N)c(C(=O)N[C@@H]3CCN(C(=O)c4ccc(-c5ccc(Oc6ccnc(Cl)c6)cc5)cc4)C3)c2)cn1 [Example 795, (R)-2-amino-N-(1-(4′-((2-chloropyridin-4-yl)oxy)-[1,1′-biphenyl]-4-carbonyl)pyrrolidin-3-yl)-5-(1-methyl-1H-pyrazol-4-yl)nicotinamide] | 10 to 100 | 500 to 1000
11 | Cn1cc(-c2cnc(N)c(C(=O)N[C@@H]3CCN(C(=O)c4ccc(-c5ccc(Oc6ccncc6)cc5)cc4)C3)c2)cn1 [Example 798, (R)-2-amino-5-(1-methyl-1H-pyrazol-4-yl)-N-(1-(4′-(pyridin-4-yloxy)-[1,1′-biphenyl]-4-carbonyl)pyrrolidin-3-yl)nicotinamide] | 10 to 100 | > 1000
12 | Cn1cc(-c2cnc(N)c(C(=O)N[C@@H]3CCN(C(=O)c4ccc(-c5ccc(Oc6cccnc6)cc5)cc4)C3)c2)cn1 [Example 802, (R)-2-amino-5-(1-methyl-1H-pyrazol-4-yl)-N-(1-(4′-(pyridin-3-yloxy)-[1,1′-biphenyl]-4-carbonyl)pyrrolidin-3-yl)nicotinamide] | 100 to 1000 | > 1000
13 | CN(c1ccc(-c2ccc(C(=O)N3CC[C@@H](NC(=O)c4cc(-c5cnn(C)c5)cnc4N)C3)cc2)cc1)c1ccc([N+](=O)[O-])cc1 [Example 803, (R)-2-amino-N-(1-(4′-(methyl(4-nitrophenyl)amino)-[1,1′-biphenyl]-4-carbonyl)pyrrolidin-3-yl)-5-(1-methyl-1H-pyrazol-4-yl)nicotinamide] | 100 to 1000 | > 1000
14 | CN(c1ccc(-c2ccc(C(=O)N3CC[C@@H](NC(=O)c4cc(-c5cnn(C)c5)cnc4N)C3)cc2)cc1)c1ccc([N+](=O)[O-])cc1F [Example 804, (R)-2-amino-N-(1-(4′-((2-fluoro-4-nitrophenyl)(methyl)amino)-[1,1′-biphenyl]-4-carbonyl)pyrrolidin-3-yl)-5-(1-methyl-1H-pyrazol-4-yl)nicotinamide] | 100 to 1000 | > 1000
15 | CN(c1ccc(-c2ccc(C(=O)N3CC[C@@H](NC(=O)c4cc(-c5cnn(C)c5)cnc4N)C3)cc2)cc1)c1ccc([N+](=O)[O-])cc1Cl [Example 806, (R)-2-amino-N-(1-(4′-((2-chloro-4-nitrophenyl)(methyl)amino)-[1,1′-biphenyl]-4-carbonyl)pyrrolidin-3-yl)-5-(1-methyl-1H-pyrazol-4-yl)nicotinamide] | > 1000 | > 1000
16 | Cn1cc(-c2cnc(N)c(C(=O)N[C@@H]3CCN(C(=O)c4ccc(-c5ccc(Oc6ccc(O)cc6)c(Cl)c5)cc4)C3)c2)cn1 [Example 808, (R)-2-amino-N-(1-(3′-chloro-4′-(4-hydroxyphenoxy)-[1,1′-biphenyl]-4-carbonyl)pyrrolidin-3-yl)-5-(1-methyl-1H-pyrazol-4-yl)nicotinamide] | 10 to 100 | 100 to 500
17 | CN1CCC(Oc2ccc(-c3ccc(C(=O)N4CC[C@@H](NC(=O)c5cc(-c6cnn(C)c6)cnc5N)C4)cc3)cc2)CC1 [Example 809, (R)-2-amino-5-(1-methyl-1H-pyrazol-4-yl)-N-(1-(4′-((1-methylpiperidin-4-yl)oxy)-[1,1′-biphenyl]-4-carbonyl)pyrrolidin-3-yl)nicotinamide] | 10 to 100 | > 1000
18 | Cn1cc(-c2cnc(N)c(C(=O)N[C@@H]3CCN(C(=O)c4ccc(-c5ccc(Oc6ccc(C=O)cc6)cc5)cc4)C3)c2)cn1 [Example 811, (R)-2-amino-N-(1-(4′-(4-formylphenoxy)-[1,1′-biphenyl]-4-carbonyl)pyrrolidin-3-yl)-5-(1-methyl-1H-pyrazol-4-yl)nicotinamide] | 10 to 100 | > 1000
